The values below come from PMC11373213, “Anti-Toxoplasma gondii effects of XYP1-derived peptides and regulatory mechanisms of XYP1” (Parasites & Vectors, 2024).

Peptide text beside a SMILES is read from it.

One data set is described as follows: CCK-8 cytotoxicity assay. Type of data set: cell-based. The settings on record: human; CCK-8, HFFs, 24 h with peptide then 2 h with CCK-8, OD540; Fig. 3C. How it is done:
[…] After 24 h, 10 μL CCK-8 solution (APExBIO, USA) was added and incubated for another 2 h. The OD540 value was then measured and the cell mortality was calculated.
A general note: Tetrazolium assays rely on reduction of a dye to a coloured formazan, in cell work by metabolically active cells.

Another data set deals with human red blood cells. Kind of data set: Hemolysis assay. Format: cell-based. The settings on record: 1% human red blood cells in PBS, 37 ℃, 30 min, OD540. How it is done: The hemolytic activity of peptides was determined by the amount of hemoglobin released from lysed human red blood cells. Normal human blood was mixed 1:1 with Aldrin’s fluid, followed by centrifuging, and phosphate buffered saline (PBS) was added to make 1% red blood cell resuspension. The 50 μL resuspension was mixed with 50 μL PBS, 1% Triton X-100, 70% DMSO (Sigma, USA), and different concentrations of polypeptides, then incubated at 37 ℃ for 30 min. After centrifugation, the OD540 value of the supernatant was measured by Microplate reader (Agilent, USA) and the hemolysis rate was calculated.

Data set [1] has as its system T. gondii tachyzoites. Briefly: Trypan blue staining (exclusion) assay, killing of tachyzoites. Format: cell-based, Toxoplasma gondii. The settings on record: 10 μM peptide, 2 h incubation with T. gondii, optical microscope, Fig. 2A. How it is done:
When T. gondii died, trypan blue was able to cross its cell membrane and enter the interior, making it blue. Trypan blue exclusion test was undertaken as mentioned before. Firstly, 10 μM different XYP1-derived peptides were prepared, incubated with T. gondii for 2 h, and then the trypan blue dye was added. After 3–5 min, the survival rate of T. gondii was observed by optical microscope and the mortality rate was calculated.

For data set [2], the system named is T. gondii tachyzoites. Briefly: Transmission electron microscopy of tachyzoite internal structure. Type of data set: cell-based, Toxoplasma gondii. The settings on record: 10 μM peptide, 2 h; Fig. 5. How it is done: TEM steps mainly include fixing, rinsing, dehydration, infiltration, embedding, etc. After the T. gondii samples were fixed in 4% glutaraldehyde, they were washed with a cacodylate buffer, and 1% osmium tetroxide was used to fix the sample at 4 ℃ for 2 h. The fixed samples were then washed and subjected to a series of gradient dewatering treatments before being embedded in epoxy resin and polymerized at 60 ℃. After polymerization, the sample was sliced and double stained. Finally, the internal structure of T. gondii tachyzoites treated with different polypeptides was observed by TEM (Tecnai G2 Spirit TWIN, USA).

In data set [3] the test system is tachyzoites of RH-GFP-TgAtg8 T. gondii strain. Kind of data set: Fluorescence microscopy killing assay with RH-GFP-TgAtg8 tachyzoites. Type of data set: cell-based, Toxoplasma gondii. The settings on record: for concentration dependence of killing effect (fluorescence area and intensity): 5 μM, 10 μM, 20 μM, room temperature, 2 h, Fig. 3A, B; for fluorescence area and intensity of RH-GFP-TgAtg8 tachyzoites vs control: 10 μM peptide, 2 h incubation, fluorescence microscopy, Fig. 2C, D. How it is done:
To explore the concentration dependence of the polypeptides against T. gondii, XYP1-derived peptide solutions with different concentration gradients (5 μM, 10 μM, 20 μM) were prepared and then mixed with T. gondii tachyzoites at room temperature. After incubation for 2 h, the anti-T. gondii effect was observed by fluorescence microscopy.

In data set [4] the test system is T. gondii RH strain tachyzoites. Kind of data set: Mouse survival assay after T. gondii RH infection. Type of data set: in vivo. The settings on record: mice i.p. 1000 RH strain tachyzoites; for effect on survival time of infected mice (in words): peptide after 4 h, 4 mg/kg, Fig. 3E; for survival of infected mice prolonged to: peptide injected after 4 h, 4 mg/kg (legend; method says 4 mg/mL), control group all died at 127.1 h. How it is done: The anti-T. gondii effect of peptides in vivo was investigated through a mouse survival experiment. The experiment was divided into a PBS control group and different polypeptide groups. Each group of mice was intraperitoneally injected with 1000 RH strain tachyzoites. After 4 h, the pre-prepared 4 mg/mL peptides were injected into the mice. The survival time of mice in each group was recorded and analyzed statistically.

The test system of another data set is IL-17. Briefly: qRT-PCR of IL-17 transcription. Type of data set: cell-based, human. The settings on record: qPCR, XYP1 treatment group vs control; Fig. 7F. How it is done: (§1) The control group consisted of HFF cells infected with T. gondii without XYP1, and the experimental group was treated with XYP1 for 8 h. Total RNAs were extracted from the control and experimental groups and reverse to cDNA, with three replicates per group. After the steps of end repair, A-tailing, and adapter ligation, the samples were proceeded with polymerase chain reaction (PCR) amplification and Illumina transcriptome sequencing in the OE biotech Co., Ltd. (Shanghai, China). Trimmomatic software was used to filter the raw data to obtain high-quality data information. Subsequently, the filtered data was aligned and assembled using HISAT2 [30] and StringTie tool. The number of reads mapped to each gene in each sample was calculated.
(§2) The total RNAs from different samples were extracted using the classical Trizol method. The PerfectStart Uni RT&qPCR Kit (TransGen Biotech, China) was used to efficiently reverse transcribe RNA into cDNA and synthesize the first strand. The qRT-PCR reaction system contains cDNA temple, forward and reverse primers, double stranded DNA fluorescent dye (SYBR Green I), DNA polymerase, dNTP and buffer. The PCR reaction was performed using a two-step amplification procedure: 94 ℃ for 30 s (pre-denaturation) followed by 40 cycles of 94 ℃ for 5 s and 60 ℃ for 30 s. Finally, the relative expression of each gene was calculated by 2^−∆∆Cq method.
(Quantitative PCR measures a nucleic acid by following its amplification.)

In a further data set the test system is NF-kB. Briefly: qRT-PCR of NF-kB transcription. Type of data set: cell-based, human. The settings on record: qPCR, XYP1 treatment group vs control; Fig. 7H. How it is done:
as §1, §2

The subject of the next data set is TP53. Briefly: qRT-PCR of TP53 transcription. Type of data set: cell-based, human. The settings on record: qPCR, XYP1 treatment group vs control; Fig. 7G. How it is done:
as §1, §2

For data set [5], the system named is T. gondii tachyzoites. The settings on record: 10 μM XYP1; previous study; cited from earlier work. How it is done: Therefore, trypan blue staining assay was used to compare the killing activity in vitro of 10 μM different derived peptides and XYP1.

As to `CC[C@H](C)[C@H](NC(=O)[C@H](Cc1ccccc1)NC(=O)[C@H](CCCCN)NC(=O)[C@H](C)NC(=O)[C@@H](NC(=O)[C@H](CO)NC(=O)[C@H](CCCCN)NC(=O)[C@H](CCSC)NC(=O)[C@H](C)NC(=O)[C@H](CCCCN)NC(=O)[C@H](Cc1ccccc1)NC(=O)[C@H](Cc1c[nH]c2ccccc12)NC(=O)[C@H](CCCCN)NC(=O)[C@@H](NC(=O)[C@@H](N)CCCCN)[C@@H](C)CC)[C@@H](C)CC)C(=O)N[C@@H](C)C(=O)N[C@@H](CCCCN)C(=O)N[C@@H](CC(=O)O)C(=O)O` [XYP1-18] (H-KIKWFKAMKSIAKFIAKD-OH; N-terminus and C-terminus assumed), inhibition in the data set “CCK-8 cytotoxicity assay” was half-maximal at 80.6 µM (IC50 at 24 h). Also, in the data set with human red blood cells (1.25 μM to 80 μM), the “hemolysis at 1.25 μM to 80 μM” value is “almost no hemolysis”. Also, the “hemolysis at the highest concentration (160 μM)” value with human red blood cells (160 μM) is recorded as “only minor hemolysis”. Besides, the “anti-T. gondii killing activity (toxoplasma mortality, trypan blue)” value (shortened to “anti-T. gondii killing activity”) in the data set on T. gondii tachyzoites [1] is “comparable to XYP1”. For the same molecule, the “damage of internal structure of tachyzoites (TEM)” value (“damage” for short) in the data set on T. gondii tachyzoites [2] was “severe deformation and rupture of the surface membrane, but also serious shrinkage and vacuolization internally”. In data set [3], the “concentration dependence of killing effect (fluorescence area and intensity)” value is “statistically different”; the “fluorescence area and intensity of RH-GFP-TgAtg8 tachyzoites vs control” value is “significantly reduced compared with the control group”. Also, in [4], the “effect on survival time of infected mice (in words)” value is “no significant difference between XYP1-18 and XYP1”; the “survival of infected mice prolonged to” value is 191 h.
With `CC[C@H](C)[C@H](NC(=O)[C@H](CCCCN)NC(=O)[C@H](CCCCN)NC(=O)[C@H](C)NC(=O)[C@@H](NC(=O)[C@H](CCCCN)NC(=O)[C@H](CCCCN)NC(=O)[C@H](CCSC)NC(=O)[C@H](CCCCN)NC(=O)[C@H](CCCCN)NC(=O)[C@H](Cc1ccccc1)NC(=O)[C@H](Cc1c[nH]c2ccccc12)NC(=O)[C@H](CCCCN)NC(=O)[C@H](CCCCN)NC(=O)[C@@H](N)CC(C)C)[C@@H](C)CC)C(=O)N[C@@H](C)C(=O)N[C@@H](CCCCN)C(=O)N[C@@H](CC(C)C)C(=O)O` [XYP1-18-1] (H-LKKWFKKMKKIAKKIAKL-OH; N-terminus and C-terminus assumed), inhibition in the data set “CCK-8 cytotoxicity assay” was half-maximal at 45.6 µM (IC50 at 24 h). Moreover, the “anti-T. gondii killing activity” value in the data set on T. gondii tachyzoites [1] is reported as “good anti-T. gondii activity”. Besides, the “damage” value with T. gondii tachyzoites [2] was “shrinkage and vacuolization, but also complete dissolution of the tachyzoites observed”. Further, the “fluorescence area and intensity of RH-GFP-TgAtg8 tachyzoites vs control” value in [3] was “significantly reduced compared with the control group”. In data set [4], the “effect on survival time of infected mice (in words)” value is reported as “poor effect on prolonging the survival time of mice” and the “survival of infected mice prolonged to” value was 145 h.
Turning to `CC[C@H](C)[C@H](NC(=O)[C@H](Cc1ccccc1)NC(=O)[C@H](CCCCN)NC(=O)[C@H](C)NC(=O)[C@@H](NC(=O)[C@H](CO)NC(=O)[C@H](CCCCN)NC(=O)[C@H](CCSC)NC(=O)[C@H](C)NC(=O)[C@H](CCCCN)NC(=O)[C@H](Cc1ccccc1)NC(=O)[C@H](Cc1c[nH]c2ccccc12)NC(=O)[C@H](CCCCN)NC(=O)[C@@H](NC(=O)[C@@H](N)CCCCN)[C@@H](C)CC)[C@@H](C)CC)C(=O)N[C@@H](C)C(=O)N[C@@H](CCCCN)C(=O)N[C@@H](CC(=O)O)C(=O)N[C@@H](CCC(N)=O)C(=O)N[C@@H](CC(C)C)C(=O)N[C@@H](CCCCN)C(=O)N[C@@H](CCCCN)C(=O)N[C@@H](Cc1c[nH]cn1)C(=O)N[C@@H](CC(C)C)C(=O)O` [XYP1] (H-KIKWFKAMKSIAKFIAKDQLKKHL-OH; N-terminus and C-terminus assumed), the “transcription level of IL-17” value in the data set on IL-17 is recorded as “down-regulated”. Further, inhibition in the data set “CCK-8 cytotoxicity assay” was half-maximal at 33.6 µM (IC50 at 24 h). In the data set on NF-kB, the “transcription level of NF-kB” value is “up-regulated”. Also, the “transcription level of TP53” value in the data set with TP53 is recorded as “down-regulated”. For the same molecule, the “killing of T. gondii tachyzoites” value in the data set with T. gondii tachyzoites [5] was “can kill T. gondii tachyzoites”. The “hemolysis at 1.25 μM to 10 μM” value in the data set with human red blood cells (1.25 μM to 10 μM) was “almost no hemolysis reaction was observed”. Further, in the data set with T. gondii tachyzoites [1], the “anti-T. gondii killing activity” value is given as “consistent with the previous findings”. Besides, the “damage” value with T. gondii tachyzoites [2] is “ruptures in the surface membrane, but also different degrees of vacuolization internally”. Besides, in data set [3], the “concentration dependence of killing effect (fluorescence area and intensity)” value is given as “statistically different”. In addition, the “survival of infected mice prolonged to” value in [4] stood at 208.5 h.
